Assay results from ChEMBL document CHEMBL3525952, “A Baeyer-Villiger oxidation specifically catalyzed by human flavin-containing monooxygenase 5” (Drug Metab Dispos, 2011).

What was measured:
[1] = Retention time of the compound by HPLC analysis; format: physicochemical
[2] = molecular target: T1, Flavin-containing monooxygenase 5 (Homo sapiens, UniProt P49326); assay: Drug level assessed as human recombinant FMO5-mediated compound formation from 10 uM ER-879819 in presence NADPH after 60 mins by LC-MS/MS method; format: ADME; settings: recombinant enzyme, 1 h
T1 sequence (P49326 whole entry): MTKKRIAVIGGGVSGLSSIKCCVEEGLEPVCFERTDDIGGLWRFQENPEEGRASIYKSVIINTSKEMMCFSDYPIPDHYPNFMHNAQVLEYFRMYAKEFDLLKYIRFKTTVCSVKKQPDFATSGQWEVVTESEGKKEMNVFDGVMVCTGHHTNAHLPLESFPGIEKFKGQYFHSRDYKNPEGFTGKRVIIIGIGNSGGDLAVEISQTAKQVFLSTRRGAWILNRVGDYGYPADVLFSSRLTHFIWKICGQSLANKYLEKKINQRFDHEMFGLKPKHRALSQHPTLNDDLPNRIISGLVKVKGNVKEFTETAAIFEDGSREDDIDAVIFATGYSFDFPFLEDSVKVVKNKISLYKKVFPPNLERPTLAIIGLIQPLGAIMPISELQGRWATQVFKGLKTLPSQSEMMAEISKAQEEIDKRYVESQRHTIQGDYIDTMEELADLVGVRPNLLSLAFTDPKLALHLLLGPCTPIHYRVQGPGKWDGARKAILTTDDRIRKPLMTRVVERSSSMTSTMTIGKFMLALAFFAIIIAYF

[3] = molecular target: T1, Flavin-containing monooxygenase 5; assay: Drug metabolism assessed as human recombinant FMO5-mediated compound formation from 50 uM E7016 in presence of human liver cytosolic fractions after 60 mins by LC-MS/MS method; format: ADME, tissue-based; settings: recombinant enzyme, 1 h
[4] = molecular target: T1, Flavin-containing monooxygenase 5; assay: Drug metabolism assessed as human recombinant FMO5-mediated compound formation from 50 uM E7016 in presence of rat liver cytosolic fractions after 60 mins by LC-MS/MS method; format: ADME, tissue-based; settings: recombinant enzyme, 1 h
[5] = Drug level in human liver S9 fraction treated with 50 uM E7016 after 60 mins in presence of NADP+ by LC-MS/MS method; format: ADME, subcellular; settings: s9, 1 h
Liver microsome [6] = assay: Drug level in human liver microsomes treated with 10 uM ER-879819 after 60 mins in presence of NADH by LC-MS/MS method; format: ADME; settings: 1 h
[7] = Drug level in dog hepatocytes treated with 50 uM E7016 after 120 mins in presence of NADPH by LC-MS/MS method; format: ADME, cell-based, Canis lupus familiaris, Hepatocyte; settings: 2 h
[8] = molecular target: T1, Flavin-containing monooxygenase 5; assay: Drug metabolism assessed as human recombinant FMO5-mediated compound formation from 50 uM E7016 in presence of dog liver cytosolic fractions after 60 mins by LC-MS/MS method; format: ADME, tissue-based; settings: recombinant enzyme, 1 h
Hepatocyte [9] = assay: Drug level in rat hepatocytes treated with 50 uM E7016 after 120 mins in presence of NADPH by LC-MS/MS method; format: ADME, cell-based; settings: 2 h
[10] = Drug level in human liver S9 fraction treated with 50 uM E7016 after 60 mins in presence of NAD+ by LC-MS/MS method; format: ADME, subcellular; settings: s9, 1 h
[11] = molecular target: T1, Flavin-containing monooxygenase 5; assay: Drug level assessed as human recombinant FMO5-mediated compound formation from 10 uM ER-879819 in presence NADH after 60 mins by LC-MS/MS method; format: ADME; settings: recombinant enzyme, 1 h
Liver microsome [12] = assay: Drug level in dog liver microsomes treated with 10 uM ER-879819 after 60 mins in presence of NADH by LC-MS/MS method; format: ADME, Canis lupus familiaris; settings: 1 h
[13] = Drug level in dog liver S9 fraction treated with 50 uM E7016 after 60 mins in presence of NAD+ by LC-MS/MS method; format: ADME, subcellular, Canis lupus familiaris; settings: s9, 1 h
Hepatocyte [14] = assay: Drug level in human hepatocytes treated with 50 uM E7016 after 120 mins in presence of NADPH by LC-MS/MS method; format: ADME, cell-based; settings: 2 h
[15] = Drug level in dog liver S9 fraction treated with 50 uM E7016 after 60 mins in presence of NADP+ by LC-MS/MS method; format: ADME, subcellular, Canis lupus familiaris; settings: s9, 1 h

Retention_time [1]	Drug metabolism [2]	Drug metabolism [3]	Drug metabolism [4]	Drug metabolism [5]	Drug metabolism (Liver microsome [6])	Drug metabolism [7]	Drug metabolism [8]	Drug metabolism (Hepatocyte [9])	Drug metabolism [10]	Drug metabolism [11]	Drug metabolism (Liver microsome [12])	Drug metabolism [13]	Drug metabolism (Hepatocyte [14])	Drug metabolism [15]	SMILES
10.7 min															Cc1ccc2c(c1)-c1n[nH]c(=O)c3cccc(c13)O2
	metabolite_detected	metabolite_detected	metabolite_detected	metabolite_detected	metabolite_detected	metabolite_detected	metabolite_detected	metabolite_detected	metabolite_detected	metabolite_detected	metabolite_detected	metabolite_detected	metabolite_detected	metabolite_detected	O=C(O)CCN(CCO)Cc1ccc2c(c1)-c1n[nH]c(=O)c3cccc(c13)O2
